Measured values: PubChem BioAssay (NCI)
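Growth conditions: 96-well plates. Treatment: test compound, 48 hours, 5 concentrations. Analysis: linear interpolation between bracketing concentrations; unreached endpoints set to highest concentration. TGI marks complete inhibition of growth.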 Where a SMILES comes first, the peptide text is derived from it. [ ]: non-standard residue; d: D form. The star is where a group is joined. X28 = COC1=CC(=O)N(C(=O)[C@@H](O*)C(C)C)[C@H]1Cc1ccccc1; NMeV = CN[C@H](C(=O)O)C(C)C; Hexanoyl = CCCCCC(=O)*

How the values were obtained:
Assay in all cases: NCI-60 cell line screen, 48 h
A498 renal = system: A498 renal
COLO 205 colon = system: COLO 205 colon
HCC-2998 colon = system: HCC-2998 colon
HCT-15 colon = system: HCT-15 colon
HOP-62 NSCLC = system: HOP-62 NSCLC
IGROV1 ovarian = system: IGROV1 ovarian
LOX IMVI melanoma = system: LOX IMVI melanoma
M19-MEL melanoma = system: M19-MEL melanoma
OVCAR-4 ovarian = system: OVCAR-4 ovarian
SF-268 CNS = system: SF-268 CNS
SK-OV-3 ovarian = system: SK-OV-3 ovarian
TK-10 renal = system: TK-10 renal
UO-31 renal = system: UO-31 renal
BT-549 breast = system: BT-549 breast
HL-60(TB) leukemia = system: HL-60(TB) leukemia
MCF7 breast = system: MCF7 breast
MDA-N = system: MDA-N
RPMI-8226 leukemia = system: RPMI-8226 leukemia
SK-MEL-2 melanoma = system: SK-MEL-2 melanoma
MDA-MB-231 breast = system: MDA-MB-231 breast

SMILES | TGI (A498 renal) | TGI (COLO 205 colon) | TGI (HCC-2998 colon) | TGI (HCT-15 colon) | TGI (HOP-62 NSCLC) | TGI (IGROV1 ovarian) | TGI (LOX IMVI melanoma) | TGI (M19-MEL melanoma) | TGI (OVCAR-4 ovarian) | TGI (SF-268 CNS) | TGI (SK-OV-3 ovarian) | TGI (TK-10 renal) | TGI (UO-31 renal) | TGI (BT-549 breast) | TGI (HL-60(TB) leukemia) | TGI (MCF7 breast) | TGI (MDA-N) | TGI (RPMI-8226 leukemia) | TGI (SK-MEL-2 melanoma) | TGI (MDA-MB-231 breast)
Nn1c(NNC(=O)C(=O)Nc2cc(Cl)c(Cl)cc2Cl)n[nH]c1=S | > 100 µM | > 100 µM | > 100 µM | > 100 µM | > 100 µM | > 100 µM | > 100 µM | > 100 µM | > 100 µM | > 100 µM | > 100 µM | > 100 µM | > 100 µM | – | – | – | – | – | – | –
C=CC/C=C/Cc1csc(C(C)(C)C(O)C/C=C/C(=C)CCNC(=O)OC)n1 (stereo unspecified) | > 100 µM | > 100 µM | > 100 µM | > 100 µM | > 100 µM | > 100 µM | > 100 µM | > 100 µM | > 100 µM | > 100 µM | > 100 µM | > 100 µM | > 100 µM | > 100 µM | > 79.4 µM | > 100 µM | > 100 µM | > 100 µM | > 100 µM | –
O=C1C(Br)=CC2(C=C1Br)CCNC1=C2C(=O)c2ccccc2C1=O | – | 15.9 µM | – | 30.3 µM | 30.7 µM | 83.6 µM | 17.2 µM | 18.4 µM | – | 63.3 µM | > 100 µM | 83.4 µM | – | – | 13.3 µM | – | – | 41 µM | 34.7 µM | –
O=CC(=C(I)I)c1ccccc1 | 40.7 µM | 6.79 µM | 26.4 µM | 5.01 µM | 19.5 µM | 11.2 µM | 4.06 µM | – | 4.37 µM | 9.97 µM | 29.9 µM | 5.83 µM | 7.63 µM | 14.1 µM | 0.275 µM | 16.2 µM | 4.81 µM | 2.62 µM | 23.2 µM | 5.57 µM
N#CC12C(=O)N3C(=NC(c4ccccc4)NC3c3ccccc3)C1(C#N)C(c1ccccc1)NC1=C2CCC1 (stereo unspecified) | > 100 µM | > 100 µM | > 100 µM | > 100 µM | > 100 µM | > 100 µM | > 100 µM | – | > 100 µM | > 100 µM | > 100 µM | > 100 µM | > 100 µM | > 100 µM | > 100 µM | > 100 µM | > 100 µM | > 100 µM | > 100 µM | > 100 µM
COc1ccc(/C=C2\C(=O)N(C3OC(COC(C)=O)C(OC(C)=O)C(OC(C)=O)C3OC(C)=O)c3ccccc3N=C2N)cc1 (stereo unspecified) | > 100 µM | 34 µM | 54.4 µM | > 100 µM | > 100 µM | > 100 µM | 89.4 µM | – | > 100 µM | > 100 µM | > 100 µM | 99.2 µM | > 100 µM | 71.6 µM | 41.9 µM | > 100 µM | 26 µM | 37.5 µM | 66.9 µM | > 100 µM
COc1cc(C=C2C(C)=NN(c3cccc(Cl)c3)C23SCC(=O)N3c2nc3ccccc3s2)ccc1O (stereo unspecified) | 66 µM | 32.9 µM | > 83.5 µM | > 93.6 µM | 91.5 µM | > 100 µM | > 69 µM | – | > 100 µM | 57.9 µM | 50.8 µM | > 100 µM | > 92.2 µM | 58.8 µM | 26.7 µM | > 100 µM | > 100 µM | 30.7 µM | 39.5 µM | 54.6 µM
CCCCCC(=O)N[C@H](C(=O)N[C@H](C(=O)N(C)[C@H](C(=O)N1CCC[C@H]1C(=O)N1CCC[C@H]1C(=O)O[C@H](C(=O)N1C(=O)C=C(OC)[C@@H]1Cc1ccccc1)C(C)C)C(C)C)C(C)C)C(C)C (Hexanoyl-VV[NMeV]PP-X28) | > 100 µM | > 100 µM | > 100 µM | > 100 µM | > 100 µM | > 100 µM | > 100 µM | – | > 100 µM | > 100 µM | > 100 µM | > 100 µM | > 100 µM | > 100 µM | > 100 µM | > 100 µM | > 100 µM | > 100 µM | > 100 µM | > 100 µM
CS(=O)(=O)N1CC(CCl)c2ccc([N+](=O)[O-])cc21 (stereo unspecified) | > 100 µM | > 100 µM | > 100 µM | > 100 µM | > 100 µM | > 100 µM | > 100 µM | – | > 100 µM | > 100 µM | > 100 µM | > 100 µM | > 100 µM | > 100 µM | > 100 µM | > 100 µM | > 100 µM | > 100 µM | > 100 µM | > 100 µM
Cc1csc(=S)n1OC(=O)NC1CCCCC1 | > 100 µM | > 40.2 µM | > 100 µM | > 100 µM | > 100 µM | > 100 µM | > 100 µM | > 56.6 µM | > 32.5 µM | > 100 µM | > 100 µM | > 100 µM | > 100 µM | – | 56.5 µM | – | – | > 71.8 µM | > 100 µM | –
O=C(COc1ccc2c(=O)cc(-c3ccccc3)oc2c1)N1CCN(c2ccccc2)CC1 | – | > 100 µM | > 100 µM | > 100 µM | > 100 µM | > 100 µM | > 100 µM | > 100 µM | – | > 100 µM | > 100 µM | > 100 µM | > 100 µM | – | 87.3 µM | – | – | > 100 µM | 77.8 µM | –
CC1=C(C(=O)O)N2C(=O)[C@@H](NC(=O)C(c3ccc(O)cc3)N3CSC(=S)N(C(C)C)C3)C2SC1 (stereo partly specified) | > 100 µM | > 100 µM | – | > 100 µM | > 100 µM | > 100 µM | > 100 µM | > 100 µM | > 100 µM | > 100 µM | > 100 µM | > 100 µM | > 100 µM | – | > 100 µM | – | – | > 100 µM | > 100 µM | –
COc1ccc(C2=Nc3ccccc3NC(=O)C2)cc1 | > 100 µM | > 100 µM | > 100 µM | > 100 µM | 45.6 µM | > 100 µM | 37.1 µM | > 100 µM | > 100 µM | 78.1 µM | 38.2 µM | 66.4 µM | > 100 µM | – | 42.1 µM | – | – | – | > 100 µM | –
O=C(/C=C/c1ccccc1)CCN1CCN(CCC(=O)/C=C/c2ccccc2)CC1 | 33.3 µM | 31.1 µM | 30.4 µM | 23 µM | 43.9 µM | 33.1 µM | 5.88 µM | – | 39.3 µM | 29.2 µM | > 100 µM | 30 µM | 30.8 µM | 28.4 µM | > 100 µM | 20.7 µM | 6.79 µM | > 100 µM | 37.5 µM | 17 µM
CC[C@H]1C=CCC[C@@]2(C[C@@H]3CC[C@@H]4[C@H](C(=O)OCCCCCCCCCCCCCCCC(=O)O)[C@]5(CCC[C@@H](C)O5)NC(=[N+]34)N2)O1 | 1.23 µM | 1.34 µM | 0.283 µM | 7.77 µM | 3.6 µM | 8.93 µM | 0.284 µM | – | 6.47 µM | 3.07 µM | 11.8 µM | 8.73 µM | 0.339 µM | 6.9 µM | 0.636 µM | 4.95 µM | 7.68 µM | 0.582 µM | 0.347 µM | 9.09 µM
CC#CC#C/C=C1/O[C@]2(CCC(OC(C)=O)CO2)[C@@H]2O[C@H]12 (stereo partly specified) | 45.7 µM | 32.4 µM | 33 µM | 42.8 µM | > 100 µM | > 100 µM | 48.2 µM | – | > 100 µM | > 100 µM | > 100 µM | > 100 µM | 39 µM | 50.4 µM | 48.7 µM | > 100 µM | > 100 µM | 75.2 µM | 40.5 µM | 44.2 µM
CC(C)[C@H]1CO[C@]2(C)[C@@H]3CN(Cc4ccccc4)C[C@@H]3C(=O)N12 | – | > 100 µM | – | > 100 µM | > 100 µM | > 100 µM | – | > 100 µM | > 100 µM | > 100 µM | > 100 µM | > 100 µM | > 100 µM | – | > 100 µM | – | – | > 100 µM | > 100 µM | –
CC(=O)OCC1OC(OC2C(CSC3OC(COC(C)=O)C(OC(C)=O)C(OC(C)=O)C3OC(C)=O)OC(OC(C)=O)C(OC(C)=O)C2OC(C)=O)C(OC(C)=O)C(OC(C)=O)C1OC(C)=O (stereo unspecified) | – | > 100 µM | > 100 µM | > 100 µM | > 100 µM | > 100 µM | > 100 µM | > 100 µM | > 100 µM | > 100 µM | > 100 µM | > 100 µM | > 100 µM | – | – | – | – | > 100 µM | – | –
NC(=O)c1cc2cc(Cl)cc(Cl)c2oc1=Nc1ccc(F)cc1 | 35.3 µM | 40.6 µM | 48.9 µM | 42.3 µM | > 100 µM | 87.3 µM | > 100 µM | – | 70.6 µM | > 100 µM | 56.5 µM | 30 µM | > 100 µM | 37 µM | > 100 µM | 45.1 µM | 66.5 µM | 61.7 µM | 31.6 µM | 35.6 µM
COc1cc(OC)c2c(c1)C(=O)C(CC(C)O)=CC2=O (stereo unspecified) | 31.7 µM | 32.6 µM | 43.7 µM | 27.7 µM | 33.6 µM | 34.2 µM | 19 µM | 11.4 µM | 31.9 µM | 33 µM | 31.9 µM | 34.1 µM | 29.9 µM | – | 21.8 µM | – | – | 46.4 µM | 36.2 µM | –
C[C@H](OCc1ccccc1)C(=O)N1CCS(=O)(=O)N2CCC[C@H]2C1=O | > 100 µM | > 100 µM | > 100 µM | > 100 µM | > 100 µM | > 100 µM | > 100 µM | > 100 µM | > 100 µM | > 100 µM | > 100 µM | > 100 µM | > 100 µM | – | > 100 µM | – | – | > 100 µM | – | –
